The values that follow come from BindingDB's records for doi:10.1124/jpet.302.2.687 (University of Kentucky, 2002).

Counter-ions that a name gives are not always drawn.

The experiment has as its target Nicotinic acetylcholine receptor (Rattus leucopus, UniProt Q62594).

Sequence of Nicotinic acetylcholine receptor (Q62594 whole entry): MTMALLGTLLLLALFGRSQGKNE

What is called Ki is a measure of affinity in units of concentration, obtained from inhibition or displacement. `CC(NC(C)(C)C)C(=O)c1cccc(Cl)c1` (stereo unspecified) [BUPROPION HYDROCHLORIDE]: the Ki was greater than 10 µM.
